The subject of test [1] is HCV replicon in Huh-7 luc/neo cells. The experiment in a line: Suppression of HCV replicon replication by conditioned media from compound-treated PBMC. Particulars: Hepatitis C virus; conditioned media from compound-treated PBMC on Huh-7 luc/neo replicon cells (compounds 74 onward); read-out: PBMC HUH-7 EC50. It counts as cell-based, HCV type 1 b. The essentials: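 Human PBMC (≥2 donors, RPMI + 10% human AB serum, 2×10^5 cells/well) incubated overnight with compounds; supernatant transferred onto Huh-7 luc/neo HCV 1b replicon cells. After 24 h, replication read as luciferase activity. Recombinant interferon α-2a served as standard.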
A general note: In antiviral work, replicon cells carry a viral genome segment that copies itself.

Test [2] deals with T1, human TLR7 (wild type sequence) (Homo sapiens, UniProt Q9NYK1).
T1 construct: expressed in transfected cells; host or cells: HEK293
T1 sequence (Q9NYK1 27-1049): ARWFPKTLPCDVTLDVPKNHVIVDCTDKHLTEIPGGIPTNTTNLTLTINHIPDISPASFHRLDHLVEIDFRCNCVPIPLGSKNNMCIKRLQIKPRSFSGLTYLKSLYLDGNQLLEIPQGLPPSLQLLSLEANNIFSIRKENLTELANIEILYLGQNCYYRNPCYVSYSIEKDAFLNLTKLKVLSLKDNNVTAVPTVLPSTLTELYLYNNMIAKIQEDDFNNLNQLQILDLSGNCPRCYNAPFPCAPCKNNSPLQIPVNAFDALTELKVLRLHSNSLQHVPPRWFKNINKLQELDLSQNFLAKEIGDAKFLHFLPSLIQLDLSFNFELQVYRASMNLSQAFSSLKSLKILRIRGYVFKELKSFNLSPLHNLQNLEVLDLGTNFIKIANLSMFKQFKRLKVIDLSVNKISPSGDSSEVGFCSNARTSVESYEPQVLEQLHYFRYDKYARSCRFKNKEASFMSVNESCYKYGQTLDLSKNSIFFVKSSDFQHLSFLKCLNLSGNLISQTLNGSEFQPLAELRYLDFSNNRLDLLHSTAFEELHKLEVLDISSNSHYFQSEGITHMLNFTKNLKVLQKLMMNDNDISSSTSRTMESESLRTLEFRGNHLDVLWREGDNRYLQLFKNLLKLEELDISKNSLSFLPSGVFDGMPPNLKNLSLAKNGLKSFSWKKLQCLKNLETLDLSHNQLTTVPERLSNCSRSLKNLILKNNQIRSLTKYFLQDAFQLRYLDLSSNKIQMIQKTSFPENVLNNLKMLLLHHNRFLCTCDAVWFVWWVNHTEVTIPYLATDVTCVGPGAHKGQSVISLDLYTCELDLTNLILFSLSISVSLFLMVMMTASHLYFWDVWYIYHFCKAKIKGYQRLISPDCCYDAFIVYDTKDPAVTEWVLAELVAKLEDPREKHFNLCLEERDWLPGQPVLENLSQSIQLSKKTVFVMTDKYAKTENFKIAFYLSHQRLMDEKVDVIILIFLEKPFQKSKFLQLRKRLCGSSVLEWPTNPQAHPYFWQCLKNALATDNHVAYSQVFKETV
The test is described as follows: TLR7 cellular NFκB-luc reporter assay, wild type TLR7. The class given is cell-based. Also on record: unit not given here. The following applies: lowest effective concentration, wild type TLR7 (compounds 74 onward). In outline:
(§1)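 HEK293 cells transiently co-transfected (48 h, 37 °C) with CMV-TLR7 or TLR8 plasmid (wild type or second-LRR deletion mutant) plus NFκB-luc reporter. Cells exposed to compound for 6 h at 37 °C, 5% CO2; luciferase read-out. LEC from quadruplicate dose-response curves: concentration giving effect at least two fold above assay standard deviation.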
A general note: Reporter assays use an easily measured gene product as a stand-in for the process of interest.

Test [3] has as its target T2, human TLR8 (wild type sequence) (Homo sapiens, UniProt Q9NR97).
T2 construct: expressed in transfected cells; host or cells: HEK293
T2 sequence (Q9NR97 27-1041): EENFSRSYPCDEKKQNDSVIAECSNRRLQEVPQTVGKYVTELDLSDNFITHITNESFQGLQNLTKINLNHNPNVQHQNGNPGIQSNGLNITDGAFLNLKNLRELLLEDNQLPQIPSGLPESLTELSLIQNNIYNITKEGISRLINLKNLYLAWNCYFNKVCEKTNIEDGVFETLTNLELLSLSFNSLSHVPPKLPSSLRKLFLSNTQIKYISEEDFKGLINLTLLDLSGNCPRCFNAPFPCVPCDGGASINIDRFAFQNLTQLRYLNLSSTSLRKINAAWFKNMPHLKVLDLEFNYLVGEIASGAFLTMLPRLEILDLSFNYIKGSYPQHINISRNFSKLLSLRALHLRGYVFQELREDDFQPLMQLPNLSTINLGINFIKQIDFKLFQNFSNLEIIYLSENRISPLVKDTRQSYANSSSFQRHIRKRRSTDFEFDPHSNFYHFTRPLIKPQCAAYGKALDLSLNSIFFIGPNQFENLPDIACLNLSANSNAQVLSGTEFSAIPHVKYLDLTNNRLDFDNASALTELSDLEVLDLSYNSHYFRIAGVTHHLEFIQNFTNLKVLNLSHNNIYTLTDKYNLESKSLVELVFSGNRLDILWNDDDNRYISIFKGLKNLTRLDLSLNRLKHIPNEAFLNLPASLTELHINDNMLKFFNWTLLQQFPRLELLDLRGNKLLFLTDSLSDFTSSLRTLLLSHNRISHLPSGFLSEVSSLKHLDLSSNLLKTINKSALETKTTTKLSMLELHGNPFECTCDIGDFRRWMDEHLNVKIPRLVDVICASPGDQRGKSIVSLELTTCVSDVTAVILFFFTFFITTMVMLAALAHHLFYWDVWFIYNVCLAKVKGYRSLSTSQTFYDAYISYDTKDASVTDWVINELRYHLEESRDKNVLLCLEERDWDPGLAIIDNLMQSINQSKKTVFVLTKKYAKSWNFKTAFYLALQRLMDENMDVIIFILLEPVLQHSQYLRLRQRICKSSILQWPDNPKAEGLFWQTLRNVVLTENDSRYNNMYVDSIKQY
The experiment in a line: TLR8 cellular NFκB-luc reporter assay, wild type TLR8. The class given is cell-based. Also on record: unit not given here. The following applies: lowest effective concentration, wild type TLR8 (compounds 74 onward). In outline: as §1

Structures are written as SMILES. Bounds are passed on as bounds.

For `CCCCNc1nc(N)ncc1OCCCc1cc(OC)c(OC)c(OC)c1` [Compound 160], in test [1], the EC50 was determined as 634 nM. Also, the “TLR 7 wt LEC” value in test [2] was determined as 0.756. Besides, in test [3], the “TLR 8 wt LEC” value was 2.710.
In the case of `CCCCNc1nc(N)ncc1OCCCc1cc(OC)c(OC)cc1OC` [Compound 161], the EC50 in test [1] was 629 nM. For the same molecule, the “TLR 7 wt LEC” value in test [2] worked out at 0.672. The “TLR 8 wt LEC” value in test [3] is given as 3.480.
The corresponding values for `CCCCNc1nc(N)ncc1OCCCc1ccc(OC)cc1OC` [Compound 163] are 728 nM, 0.573 and 2.500.
Regarding `CCCCNc1nc(N)ncc1OCCCc1ccc(OC)c(OC)c1OC` [Compound 164], the EC50 in test [1] stood at 769 nM. For the same molecule, in test [2], the “TLR 7 wt LEC” value came to 0.606. Further, in test [3], the “TLR 8 wt LEC” value is listed as 23.030.
The corresponding values for `CCC[C@@H](CCO)Nc1nc(N)ncc1OCCCc1ccccc1` [Compound 165] are 187 nM, 0.683 and 1.800.
For `CCCCNc1nc(N)ncc1OCc1cc2ccccc2cn1` [Compound 166], the EC50 in test [1] was determined as 46 nM. For the same molecule, in test [2], the “TLR 7 wt LEC” value turned out to be 0.128. For the same molecule, the “TLR 8 wt LEC” value in test [3] is on record as 0.980.
As to `CCCCNc1nc(N)ncc1OCCC(c1ccccc1)c1ccccc1` [Compound 167], the EC50 in test [1] was 764 nM. For the same molecule, the “TLR 7 wt LEC” value in test [2] is listed as 1.200. In addition, the “TLR 8 wt LEC” value in test [3] was over 25.
For `CCCC(C)Nc1nc(N)nc(C)c1OCc1ccccc1` (stereo not drawn) [Compound 168] the same measures were 11700 nM, over 25 and 14.900.
In the case of `CCCCNc1nc(N)ncc1OCCCc1ccc(Cl)c(Cl)c1` [Compound 169], the EC50 in test [1] came to 3130 nM. Besides, the “TLR 7 wt LEC” value in test [2] is 5.110. The “TLR 8 wt LEC” value in test [3] was over 25.
The corresponding values for `CCCCNc1nc(N)ncc1OCc1cc(C(=O)OCC)ccn1` [Compound 170] are 2630 nM, 0.319 and 1.750.
With `CCCCNc1nc(N)ncc1OCc1cc(OC)ccn1` [Compound 171], in test [1], the EC50 was determined as 158 nM. Besides, the “TLR 7 wt LEC” value in test [2] was determined as 0.396. Further, the “TLR 8 wt LEC” value in test [3] is reported as 1.060.
For `CCCCNc1nc(N)ncc1OCc1cc(OC2Cc3ccccc3C2)c(OC)cn1` [Compound 172] the same measures were 45 nM, 0.187 and 2.000.
For `CCCCNc1nc(N)ncc1OCc1cc(OC2CCCC2)c(OC)cn1` [Compound 173] the same measures were 86 nM, 0.222 and 2.550.
With `CCCCNc1nc(N)ncc1OCc1cc(OC2CCOC2)c(OC)cn1` (stereo not drawn) [Compound 174], the EC50 in test [1] was found to be 52 nM. Further, the “TLR 7 wt LEC” value in test [2] stood at 0.447. Moreover, the “TLR 8 wt LEC” value in test [3] was 2.610.
The corresponding values for `CCCCNc1nc(N)ncc1OCc1cc(OCC2CC2)c(OC)cn1` [Compound 175] are 167 nM, 0.367 and 2.480.
Consider `CCCCNc1nc(N)ncc1OCc1cccc(C(N)=O)n1` [Compound 176], for which the EC50 in test [1] turned out to be 173 nM. Besides, the “TLR 7 wt LEC” value in test [2] stood at 0.868. Besides, the “TLR 8 wt LEC” value in test [3] is 0.463.
For the molecule `CCCCNc1nc(N)ncc1OCCCc1ccncc1` [Compound 177], the EC50 in test [1] stood at 197 nM. Besides, the “TLR 7 wt LEC” value in test [2] is given as 0.795. Further, in test [3], the “TLR 8 wt LEC” value is reported as 0.819.
Regarding `CCCCNc1nc(N)ncc1OCc1ncccc1OC` [Compound 179], the EC50 in test [1] stood at 21 nM. Moreover, in test [2], the “TLR 7 wt LEC” value came out at 0.078. Also, the “TLR 8 wt LEC” value in test [3] stood at 0.142.
With `CCCCNc1nc(N)ncc1OCc1cc(C(F)(F)F)n(C)n1` [Compound 181], in test [1], the EC50 stood at 96 nM. The “TLR 7 wt LEC” value in test [2] came out at 0.146. In test [3], the “TLR 8 wt LEC” value is listed as 1.210.
The corresponding values for `CCCCNc1nc(N)ncc1OCc1nn(C)c2cc(OC)c(OC)cc12` [Compound 183] are 23 nM, 0.056 and 1.580.
The corresponding values for `CCCCNc1nc(N)ncc1OCc1cccc2cccnc12` [Compound 184] are 53 nM, 0.157 and 1.650.
Take `CCCC(C)Nc1nc(N)ncc1OCc1ccc2ccccc2n1` (stereo not drawn) [Compound 185]: in test [1], the EC50 came out at 488 nM. The “TLR 7 wt LEC” value in test [2] turned out to be 0.743. The “TLR 8 wt LEC” value in test [3] amounted to 2.340.
For `CCCC[C@@H](CCO)Nc1nc(N)ncc1OCc1ccc2ccccc2n1` [Compound 186] the same measures were 65 nM, 0.122 and 0.680.
Regarding `CCC[C@@H](CCO)Nc1nc(N)ncc1OCc1ncc(C)c(OC)c1C` [Compound 187], the EC50 in test [1] was 22 nM. Besides, the “TLR 7 wt LEC” value in test [2] was 0.074. Besides, the “TLR 8 wt LEC” value in test [3] turned out to be 0.178.
The corresponding values for `CCC[C@@H](CCO)Nc1nc(N)ncc1OCc1ccc2ccccc2n1` [Compound 188] are 86 nM, 0.237 and 0.530.
For `CCCCCC(C)Nc1nc(N)ncc1OCc1ccc2ccccc2n1` (stereo not drawn) [Compound 189], the EC50 in test [1] stood at 17600 nM. Moreover, the “TLR 7 wt LEC” value in test [2] came to 11.990. Moreover, the “TLR 8 wt LEC” value in test [3] is recorded as over 25.
Consider `CCC[C@H](CCO)Nc1nc(N)ncc1OCc1ccccc1` [Compound 190], for which the EC50 in test [1] was determined as 3230 nM. Further, in test [2], the “TLR 7 wt LEC” value turned out to be 8.620. In addition, the “TLR 8 wt LEC” value in test [3] stood at 4.330.
Regarding `CCC[C@@H](CO)Nc1nc(N)ncc1OCc1ccc2ccccc2n1` [Compound 192], the EC50 in test [1] was 44 nM. In addition, in test [2], the “TLR 7 wt LEC” value amounted to 0.080. The “TLR 8 wt LEC” value in test [3] worked out at 0.220.
For `CCCC[C@@H](CO)Nc1nc(N)ncc1OCc1ncc(C)c(OC)c1C` [Compound 194] the same measures were 19 nM, 0.031 and 0.164.
In the case of `CCC[C@@H](CO)Nc1nc(N)ncc1OCc1nccc2ccccc12` [Compound 195], the EC50 in test [1] stood at 3 nM. Further, the “TLR 7 wt LEC” value in test [2] is reported as 0.003. Further, the “TLR 8 wt LEC” value in test [3] came out at 0.056.

As a reminder, the EC50 is the concentration giving half of the maximal effect.

The record behind these values is patent publication US11541050B2, “Pyrimidine derivatives for the treatment of viral infections” (JANSSEN SCIENCES IRELAND UC, priority 2011, dated 2023).
